Substitutions are numbered along the chain they refer to. pIC50: −log10 of the molar value.
What was measured:
[1] = biological target: T1, human microsomal triglyceride transfer protein (hMTP) (Homo sapiens, UniProt P55157); assay: fluorescent NBD-lipid vesicle transfer assay (PL and TAG) with purified MTP; type: biochemical
T1 construct: gene MTTP; hMTP-FLAG, purified from Cos-7 cells; with protein disulphide isomerase (PDI, β subunit)
T1 sequence (P55157 19-894): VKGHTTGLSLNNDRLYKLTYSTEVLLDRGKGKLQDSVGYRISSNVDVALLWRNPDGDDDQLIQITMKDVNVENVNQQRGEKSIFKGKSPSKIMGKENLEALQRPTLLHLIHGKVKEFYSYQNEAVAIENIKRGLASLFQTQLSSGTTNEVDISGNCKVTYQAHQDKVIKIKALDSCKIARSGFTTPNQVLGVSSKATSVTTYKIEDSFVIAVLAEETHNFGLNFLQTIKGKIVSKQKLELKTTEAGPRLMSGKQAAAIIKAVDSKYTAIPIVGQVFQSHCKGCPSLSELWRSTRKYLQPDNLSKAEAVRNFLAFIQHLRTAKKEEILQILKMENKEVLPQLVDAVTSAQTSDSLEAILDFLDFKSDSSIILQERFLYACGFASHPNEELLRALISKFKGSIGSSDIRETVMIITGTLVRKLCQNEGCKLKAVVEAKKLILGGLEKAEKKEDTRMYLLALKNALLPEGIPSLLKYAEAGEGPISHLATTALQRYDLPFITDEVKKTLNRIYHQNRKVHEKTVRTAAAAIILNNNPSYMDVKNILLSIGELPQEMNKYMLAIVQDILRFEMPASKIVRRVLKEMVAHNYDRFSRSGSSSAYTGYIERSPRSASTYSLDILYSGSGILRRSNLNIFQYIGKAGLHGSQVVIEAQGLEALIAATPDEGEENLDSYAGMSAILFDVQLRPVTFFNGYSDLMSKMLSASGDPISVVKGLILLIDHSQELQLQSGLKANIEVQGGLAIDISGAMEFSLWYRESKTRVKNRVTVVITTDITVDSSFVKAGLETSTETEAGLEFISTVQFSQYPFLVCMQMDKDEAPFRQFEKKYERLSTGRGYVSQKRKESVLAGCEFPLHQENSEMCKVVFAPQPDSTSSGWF

[2] = biological target: T2, mouse microsomal triglyceride transfer protein (mMTP) (Mus musculus, UniProt O08601); assay: NBD-lipid TAG and PL transfer assay in liver homogenate with Mttp knockout control, […] lomitapide; type: cell-based
T2 construct: gene Mttp; endogenous, liver homogenate
T2 sequence (O08601 22-894): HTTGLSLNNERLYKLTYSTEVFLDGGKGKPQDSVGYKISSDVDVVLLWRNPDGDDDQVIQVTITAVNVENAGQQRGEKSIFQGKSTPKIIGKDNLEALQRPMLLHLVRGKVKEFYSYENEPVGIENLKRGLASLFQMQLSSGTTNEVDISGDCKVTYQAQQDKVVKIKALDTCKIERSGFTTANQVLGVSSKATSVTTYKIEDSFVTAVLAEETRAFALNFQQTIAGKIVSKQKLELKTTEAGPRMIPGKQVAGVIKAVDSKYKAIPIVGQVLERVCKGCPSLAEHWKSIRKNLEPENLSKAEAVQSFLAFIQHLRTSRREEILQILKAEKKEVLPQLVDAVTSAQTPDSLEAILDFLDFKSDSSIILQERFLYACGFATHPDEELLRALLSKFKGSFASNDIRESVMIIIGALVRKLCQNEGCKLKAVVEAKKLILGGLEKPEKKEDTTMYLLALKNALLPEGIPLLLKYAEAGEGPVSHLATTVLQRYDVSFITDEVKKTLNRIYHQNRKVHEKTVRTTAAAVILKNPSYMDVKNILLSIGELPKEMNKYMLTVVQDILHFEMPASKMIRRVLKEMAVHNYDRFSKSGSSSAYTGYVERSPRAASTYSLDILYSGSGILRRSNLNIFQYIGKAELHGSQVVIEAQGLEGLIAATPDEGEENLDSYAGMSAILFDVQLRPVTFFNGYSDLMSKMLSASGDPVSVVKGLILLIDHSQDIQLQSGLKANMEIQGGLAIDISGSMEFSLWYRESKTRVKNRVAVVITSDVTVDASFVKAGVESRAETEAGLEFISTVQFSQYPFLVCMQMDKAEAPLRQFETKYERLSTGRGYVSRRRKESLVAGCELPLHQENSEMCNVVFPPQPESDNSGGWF
T2 sequence (P09103 20-509 partner): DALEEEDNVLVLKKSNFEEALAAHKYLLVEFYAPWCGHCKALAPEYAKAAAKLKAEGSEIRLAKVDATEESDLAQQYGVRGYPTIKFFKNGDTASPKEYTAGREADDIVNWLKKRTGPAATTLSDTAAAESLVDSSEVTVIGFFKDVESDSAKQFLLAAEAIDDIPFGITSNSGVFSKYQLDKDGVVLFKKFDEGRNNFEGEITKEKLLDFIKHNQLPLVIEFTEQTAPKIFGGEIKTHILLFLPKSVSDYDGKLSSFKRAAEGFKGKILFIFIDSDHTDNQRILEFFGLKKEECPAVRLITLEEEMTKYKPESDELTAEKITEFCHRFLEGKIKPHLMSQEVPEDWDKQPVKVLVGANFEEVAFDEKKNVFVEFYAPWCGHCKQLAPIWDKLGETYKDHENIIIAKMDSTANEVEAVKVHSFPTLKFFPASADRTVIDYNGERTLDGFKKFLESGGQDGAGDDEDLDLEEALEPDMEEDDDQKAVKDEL

[3] = biological target: T3, human microsomal triglyceride transfer protein (hMTP) N649S mutant (Homo sapiens, UniProt P55157, N649S); assay: NBD-lipid TAG and PL transfer assay in Cos-7 lysate, […] lomitapide; type: cell-based
T3 construct: gene MTTP; expressed in Cos-7 cells, lysate
T3 sequence (P55157 19-894 N649S): T1 sequence (P55157 19-894) with N631S

Drosophila MTP (dMTP) = biological target: T4, Drosophila MTP (dMTP) (Drosophila melanogaster, UniProt Q9VIH3); assay: NBD-PE PL transfer assay in Cos-7 lysate, […] lomitapide (partial inhibition); type: cell-based
T4 construct: expressed in Cos-7 cells, lysate
T4 sequence (Q9VIH3 28-886): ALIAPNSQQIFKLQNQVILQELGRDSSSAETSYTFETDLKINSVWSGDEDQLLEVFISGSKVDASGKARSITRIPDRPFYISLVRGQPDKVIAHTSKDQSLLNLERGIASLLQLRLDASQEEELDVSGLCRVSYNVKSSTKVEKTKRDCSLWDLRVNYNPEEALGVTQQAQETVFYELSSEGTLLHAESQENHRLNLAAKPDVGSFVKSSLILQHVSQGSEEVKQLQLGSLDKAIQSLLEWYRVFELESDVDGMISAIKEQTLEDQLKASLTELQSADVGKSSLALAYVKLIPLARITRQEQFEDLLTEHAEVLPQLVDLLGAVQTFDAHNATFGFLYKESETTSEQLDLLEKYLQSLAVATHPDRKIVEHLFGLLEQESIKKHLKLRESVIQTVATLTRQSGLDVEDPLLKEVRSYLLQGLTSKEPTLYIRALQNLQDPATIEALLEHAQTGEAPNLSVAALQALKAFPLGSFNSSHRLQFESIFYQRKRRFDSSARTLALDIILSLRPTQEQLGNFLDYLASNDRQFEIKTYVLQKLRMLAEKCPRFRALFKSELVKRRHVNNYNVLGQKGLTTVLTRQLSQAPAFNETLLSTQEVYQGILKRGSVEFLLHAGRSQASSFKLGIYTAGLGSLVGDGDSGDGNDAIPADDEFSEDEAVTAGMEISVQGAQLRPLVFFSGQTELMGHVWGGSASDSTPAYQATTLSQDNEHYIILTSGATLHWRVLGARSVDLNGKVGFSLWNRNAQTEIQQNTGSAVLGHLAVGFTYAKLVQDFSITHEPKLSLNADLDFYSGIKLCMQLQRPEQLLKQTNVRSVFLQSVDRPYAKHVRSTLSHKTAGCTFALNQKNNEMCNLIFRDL

O=C(NC1CCN(CCCCC2(C(=O)NCC(F)(F)F)c3ccccc3-c3ccccc32)CC1)c1ccccc1-c1ccc(C(F)(F)F)cc1 [lomitapide]
pIC50 [1]: 8.00
NBD-lipid TAG and PL transfer assay in liver homogenate with Mttp knockout contr [2]: substantial TAG transfer activity in Mttp^fl/fl liver tissue, and this activity was inhibited by lomitapide
NBD-lipid TAG and PL transfer assay in Cos-7 lysate, 1 μM lomitapide [3]: resulted in significantly lower TAG transfer activity, which was completely inhibited by lomitapide
NBD-PE PL transfer assay in Cos-7 lysate, 1 μM lomitapide (partial inhibition) (Drosophila MTP (dMTP)): This activity was partially inhibited by lomitapide.
